The values below come from US20090182020A1, “SUBSTITUTED BIS(HETERO)AROMATIC N--ETHYLPROPIOLAMIDES AND USE THEREOF FOR PRODUCTION OF MEDICAMENTS” (GRUNENTHAL GMBH, priority 2005, published 2009).

In general, IC50 refers to the point on the concentration scale where inhibition reaches its midpoint. Low readings indicate greater potency in that assay, high ones weaker potency in that assay. By inhibition is commonly meant the drop in the measured response relative to a control, in per cent.

In the experiment the target is T1, mGluR5 receptor (pig) (Sus scrofa, UniProt I3LUI7).
T1 construct: 450 μg protein from brain homogenate is incubated with 5 nM ^3[H]-MPEP; from tissue; host or cells: pig brain halves without medulla, cerebellum and pons
T1 sequence (I3LUI7 19-1212): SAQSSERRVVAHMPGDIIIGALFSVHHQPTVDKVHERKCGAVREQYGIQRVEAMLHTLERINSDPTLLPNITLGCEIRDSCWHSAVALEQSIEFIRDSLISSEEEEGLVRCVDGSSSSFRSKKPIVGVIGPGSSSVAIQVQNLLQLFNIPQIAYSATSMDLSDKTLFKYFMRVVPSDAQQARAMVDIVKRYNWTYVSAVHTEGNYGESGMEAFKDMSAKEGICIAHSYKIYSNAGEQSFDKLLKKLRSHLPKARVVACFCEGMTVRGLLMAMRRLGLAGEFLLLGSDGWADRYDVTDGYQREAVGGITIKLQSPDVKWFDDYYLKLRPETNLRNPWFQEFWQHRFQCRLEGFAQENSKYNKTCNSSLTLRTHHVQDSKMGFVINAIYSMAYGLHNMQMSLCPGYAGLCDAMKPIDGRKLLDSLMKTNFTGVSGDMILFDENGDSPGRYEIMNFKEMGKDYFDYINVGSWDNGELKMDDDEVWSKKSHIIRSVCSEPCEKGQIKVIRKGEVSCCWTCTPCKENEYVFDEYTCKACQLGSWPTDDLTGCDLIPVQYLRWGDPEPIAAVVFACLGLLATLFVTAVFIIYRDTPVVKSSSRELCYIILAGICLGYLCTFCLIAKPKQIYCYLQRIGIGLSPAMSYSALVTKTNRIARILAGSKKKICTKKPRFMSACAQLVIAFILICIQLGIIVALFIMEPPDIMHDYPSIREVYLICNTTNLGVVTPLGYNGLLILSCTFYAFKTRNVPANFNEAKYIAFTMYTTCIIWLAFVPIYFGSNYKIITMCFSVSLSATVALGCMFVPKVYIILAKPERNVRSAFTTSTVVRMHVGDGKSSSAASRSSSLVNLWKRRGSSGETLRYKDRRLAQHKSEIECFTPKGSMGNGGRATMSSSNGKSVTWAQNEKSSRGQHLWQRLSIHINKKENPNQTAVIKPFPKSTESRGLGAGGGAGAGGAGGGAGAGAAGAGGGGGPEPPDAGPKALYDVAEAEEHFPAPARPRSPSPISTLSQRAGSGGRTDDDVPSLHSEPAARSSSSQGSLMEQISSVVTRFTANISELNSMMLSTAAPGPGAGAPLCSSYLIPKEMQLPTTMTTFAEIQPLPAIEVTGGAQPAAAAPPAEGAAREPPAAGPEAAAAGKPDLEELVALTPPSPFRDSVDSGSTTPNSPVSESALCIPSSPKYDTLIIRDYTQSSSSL
Description: [3H]-MPEP bond in the mGluR5 receptor bond assay (pig brain homogenate). It counts as binding. As to conditions: 5 nM [3H]-MPEP; for IC50: pig brain homogenate; for inhibition at 10 µM: 10 μM test compound, 450 μg protein pig brain homogenate, 60 min room temperature. As for the experimental part:
I. Method for Determining the Inhibition of the [^3H]-MPEP Bond in the mGluR5 Receptor Bond Assay
Pig brain homogenate is produced by homogenisation (Polytron PT 3000, Kinematica AG, 10,000 rpm for 90 seconds) of pig brain halves without medulla, cerebellum and pons in buffer pH 8.0 (30 mM Hepes, Sigma, order no. H3375+1 tablet complete to 100 ml, Roche Diagnostics, order no. 1836145) in the ratio 1:20 (brain weight/volume) and differential centrifugation at 900×g and 40,000×g. In each case, 450 μg protein from brain homogenate is incubated with 5 nM ^3[H]-MPEP (Tocris, order no. […]
Thereafter, the batches are filtered with the help of a Brandel Cell Harvester (Brandel, TYP Robotic 9600) on unifilter plates with glass fibre filter mats (Perkin Elmer, order no. 6005177) and subsequently washed with buffer (as above) 3 times with in each case 250 μl per sample. The filter plates are subsequently dried for 60 min at 55° C. 30 μL Ultima Gold™ scintillator (Packard BioScience, order no. 6013159) is subsequently added per well and the samples are measured after 3 hours on the β-counter (Mikrobeta, Perkin Elmer). The unspecific bond is determined by addition of 10 μM MPEP (Tocris, order no. 1212).

`O=C(C#Cc1cccc(Cl)c1)NCCc1ccccc1` [Example 2, 3-(3-chlorophenyl)-N-phenethylpropiolamide]: the IC50 is 44 nM.

Regarding `O=C(C#Cc1cccc(Cl)c1)NCCc1ccccn1` [Example 3, 3-(3-chlorophenyl)-N-(2-(pyridine-2-yl)ethyl)propiolamide], half-maximal inhibition (IC50) required 34 nM.

The compound `O=C(C#Cc1cccc(Cl)c1)NCCc1ccncc1` [Example 4, 3-(3-chlorophenyl)-N-(2-(pyridine-4-yl)ethyl)propiolamide] displayed an IC50 of 2000 nM.

With `COc1cccc(C#CC(=O)NCCc2ccccn2)c1` [Example 6, 3-(3-methoxyphenyl)-N-(2-(pyridine-2-yl)ethyl)propiolamide], the inhibition at 10 µM worked out at 82%.

For the compound `Cc1cc(C#CC(=O)NCCc2ccccn2)ccc1F` [Example 7, 3-(4-fluoro-3-methylphenyl)-N-(2-(pyridine-2-yl)ethyl)propiolamide], the inhibition at 10 µM was determined as 82%.

Regarding `O=C(C#Cc1ccccc1F)NCCc1ccccn1` [Example 8, 3-(2-fluorophenyl)-N-(2-(pyridine-2-yl)ethyl)propiolamide], the inhibition at 10 µM worked out at 70%.

With `O=C(C#Cc1ccccc1)NCCc1ccccn1` [Example 11, 3-phenyl-N-(2-(pyridine-2-yl)ethyl)propiolamide], the inhibition at 10 µM came to 81%.

As for `Cc1cccc(C#CC(=O)NCCc2ccccn2)c1` [Example 18, N-(2-(pyridine-2-yl)ethyl)-3-m-tolyl-propiolamide], the inhibition at 10 µM is 90%.

Consider `O=C(C#Cc1ccc(F)cc1)NCCc1ccccn1` [Example 20, 3-(4-fluoro-phenyl)-N-(2-(pyridine-2-yl)ethyl)propiolamide], for which the inhibition at 10 µM was determined as 54%.

Take `O=C(C#Cc1cccs1)NCCc1ccccn1` [Example 25, N-(2-(pyridine-2-yl)ethyl)-3-thiophene-2-yl-propiolamide]: the inhibition at 10 µM amounted to 68%.

Turning to `O=C(C#Cc1ccc2[nH]ccc2c1)NCCc1ccccn1` [Example 38, 3-(1H-indol-5-yl)-N-(2-(pyridine-2-yl)ethyl)propiolamide], the inhibition at 10 µM was found to be 36%.

In the case of `Cc1cc(C#CC(=O)N(C)CCc2ccccc2)ccc1F` [Example 41, 3-(4-fluoro-3-methylphenyl)-N-methyl-N-phenethylpropiolamide], the inhibition at 10 µM came out at 92%.

`CN(CCc1ccccc1)C(=O)C#Cc1ccccc1F` [Example 42, 3-(2-fluorophenyl)-N-methyl-N-phenethylpropiolamide]: the inhibition at 10 µM worked out at 90%.

Take `Cc1cccc(C#CC(=O)N(C)CCc2ccccc2)c1` [Example 46, N-methyl-N-phenethyl-3-m-tolylpropiolamide]: the inhibition at 10 µM came out at 97%.

With `Cc1ccc(C#CC(=O)N(C)CCc2ccccc2)c(C)c1` [Example 47, 3-(2,4-dimethylphenyl)-N-methyl-N-phenethylpropiolamide], the inhibition at 10 µM was found to be 51%.

Turning to `CN(CCc1ccccc1)C(=O)C#Cc1cccc(C(F)(F)F)c1` [Example 49, N-methyl-N-phenethyl-3-(3-(trifluoromethyl)phenyl)propiolamide], the inhibition at 10 µM is 108%.

Turning to `CN(CCc1ccccc1)C(=O)C#Cc1ccccc1C#N` [Example 55, 3-(2-cyanophenyl)-N-methyl-N-phenethylpropiolamide], the inhibition at 10 µM turned out to be 40%.

Regarding `Cc1cc(C#CC(=O)NCCc2cccs2)ccc1F` [Example 56, 3-(4-fluoro-3-methylphenyl)-N-(2-(thiophene-2-yl)ethyl)propiolamide], the inhibition at 10 µM is 54%.

For `Cc1cccc(C#CC(=O)NCCc2c[nH]c3ccccc23)c1` [Example 57, N-(2-(1H-indol-3-yl)ethyl)-3-m-tolylpropiolamide], the inhibition at 10 µM came to 91%.

On to `COc1cccc(C#CC(=O)NCCc2cccc(Cl)c2)c1` [Example 58, N-(3-chlorophenethyl)-3-(3-methoxyphenyl)propiolamide], for which the inhibition at 10 µM was 91%.

Regarding `COc1cccc(C#CC(=O)NCCc2ccc(C)cc2)c1` [Example 59, 3-(3-methoxyphenyl)-N-(4-methylphenethyl)propiolamide], the inhibition at 10 µM turned out to be 57%.

As to `COc1cccc(C#CC(=O)NCCc2ccc(F)cc2)c1` [Example 61, N-(4-fluorophenethyl)-3-(3-methoxyphenyl)propiolamide], the inhibition at 10 µM stood at 85%.

On to `Cc1cc(C#CC(=O)NCCc2cccc(Cl)c2)ccc1F` [Example 62, N-(3-chlorophenethyl)-3-(4-fluoro-3-methylphenyl)propiolamide], for which the inhibition at 10 µM was found to be 75%.

Regarding `O=C(C#Cc1ccccc1)NCCc1cccc(Cl)c1` [Example 65, N-(3-chlorophenethyl)-3-phenylpropiolamide], the inhibition at 10 µM was 97%.

Turning to `Cc1ccc(CCNC(=O)C#Cc2ccccc2)cc1` [Example 66, N-(4-methylphenethyl)-3-phenylpropiolamide], the inhibition at 10 µM came out at 64%.

For `O=C(C#Cc1ccccc1)NCCc1ccc(F)cc1` [Example 68, N-(4-fluorophenethyl)-3-phenylpropiolamide], the inhibition at 10 µM came to 90%.

On to `Cc1cccc(C#CC(=O)NCCc2cccc(Cl)c2)c1` [Example 69, N-(3-chlorophenethyl)-3-m-tolylpropiolamide], for which the inhibition at 10 µM is 107%.

As for `Cc1ccc(CCNC(=O)C#Cc2cccc(C)c2)cc1` [Example 70, N-(4-methylphenethyl)-3-m-tolylpropiolamide], the inhibition at 10 µM came to 89%.

Take `Cc1cccc(C#CC(=O)NCC(c2ccccc2)c2ccccc2)c1` [Example 71, N-(2,2-diphenylethyl)-3-m-tolylpropiolamide]: the inhibition at 10 µM is 57%.

With `O=C(C#Cc1ccc(F)cc1)NCCc1ccccc1` [Example 72, 3-(4-fluorophenyl)-N-phenethylpropiolamide], the inhibition at 10 µM worked out at 57%.

For the compound `O=C(C#Cc1cccs1)NCCc1cccs1` [Example 73, 3-(thiophene-2-yl)-N-(2-(thiophene-2-yl)ethyl)propiolamide], the inhibition at 10 µM was found to be 76%.

Consider `CN(CCc1ccccc1)C(=O)C#Cc1ccc(F)cc1F` [Example 78, 3-(2,4-difluorophenyl)-N-methyl-N-phenethylpropiolamide], for which the inhibition at 10 µM was 69%.

On to `COc1cccc(C#CC(=O)N(C)CCc2ccccc2)c1` [Example 80, 3-(3-methoxyphenyl)-N-methyl-N-phenethylpropiolamide], for which the inhibition at 10 µM was determined as 70%.

On to `COc1cccc(C#CC(=O)NCCc2ccccc2)c1` [Example 81, 3-(3-methoxyphenyl)-N-phenethylpropiolamide], for which the inhibition at 10 µM came to 79%.

On to `Cc1cc(C#CC(=O)NCCc2ccccc2)ccc1F` [Example 82, 3-(4-fluoro-3-methylphenyl)-N-phenethylpropiolamide], for which the inhibition at 10 µM amounted to 69%.

In the case of `O=C(C#Cc1ccccc1)NCCc1ccccc1` [Example 83, N-phenethyl-3-phenylpropiolamide], the inhibition at 10 µM was determined as 91%.

Turning to `Cc1cccc(C#CC(=O)NCCc2ccccc2)c1` [Example 84, N-phenethyl-3-m-tolylpropiolamide], the inhibition at 10 µM stood at 89%.

As for `O=C(C#Cc1cccs1)NCCc1ccccc1` [Example 85, N-phenethyl-3-(thiophene-2-yl)propiolamide], the inhibition at 10 µM turned out to be 79%.

In the case of `N#Cc1cccc(C#CC(=O)NCCc2ccccc2)c1` [Example 86, 3-(3-cyanophenyl)-N-phenethylpropiolamide], the inhibition at 10 µM amounted to 86%.

Consider `COc1cccc(C#CC(=O)NCCc2c[nH]c3ccccc23)c1` [Example 87, N-(2-(1H-indol-3-yl)ethyl)-3-(3-methoxyphenyl)propiolamide], for which the inhibition at 10 µM was 42%.

As to `O=C(C#Cc1ccc(F)cc1)NCCc1cccc(Cl)c1` [Example 89, N-(3-chlorophenethyl)-3-(4-fluorophenyl)propiolamide], the inhibition at 10 µM turned out to be 64%.

For `O=C(C#Cc1ccc(F)cc1)NCCc1ccc(F)cc1` [Example 92, N-(4-fluorophenethyl)-3-(4-fluorophenyl)propiolamide], the inhibition at 10 µM came to 42%.

Consider `O=C(C#Cc1cccc(Cl)c1)NCCc1cccc(Cl)c1` [Example 93, N-(3-chlorophenethyl)-3-(3-chlorophenyl)propiolamide], for which the inhibition at 10 µM amounted to 89%.

Regarding `O=C(C#Cc1cccs1)NCCc1cccc(Cl)c1` [Example 94, N-(3-chlorophenethyl)-3-(thiophene-2-yl)propiolamide], the inhibition at 10 µM turned out to be 84%.

On to `Cc1ccc(CCNC(=O)C#Cc2cccs2)cc1` [Example 95, N-(4-methylphenethyl)-3-(thiophene-2-yl)propiolamide], for which the inhibition at 10 µM came out at 75%.

Consider `O=C(C#Cc1cccs1)NCC(c1ccccc1)c1ccccc1` [Example 96, N-(2,2-diphenylethyl)-3-(thiophene-2-yl)propiolamide], for which the inhibition at 10 µM was 31%.

Consider `Cc1ccc(CCNC(=O)C#Cc2cccc(C#N)c2)cc1` [Example 97, 3-(3-cyanophenyl)-N-(4-methylphenethyl)propiolamide], for which the inhibition at 10 µM was 96%.

Consider `N#Cc1cccc(C#CC(=O)NCC(c2ccccc2)c2ccccc2)c1` [Example 98, 3-(3-cyanophenyl)-N-(2,2-diphenylethyl)propiolamide], for which the inhibition at 10 µM stood at 40%.
